The source of these data is PubChem BioAssay (NCI).

Experiment in all cases: NCI-60 cell line screen, 48 h
In test [1] the test system is NCI/ADR-RES ovarian.
The subject of test [2] is SNB-19 CNS.
The subject of test [3] is SR leukemia.
Test [4] concerns BT-549 breast.
Test [5] has as its system IGROV1 ovarian.
Test [6] relates to ACHN renal.
Test [7] relates to 786-0 renal.
The test system of test [8] is DU-145 prostate.

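These data come from cells grown in 96-well plates and exposed to compound for 48 hours at five concentrations. GI50 marks 50% less growth. The concentration for full growth arrest is given as TGI.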

As to `O=C(Nc1cccc([N+](=O)[O-])c1)c1cc2ccccc2cc1O`, the GI50 in test [1] was 1.76 µM; in test [2], 2.93 µM; in test [3], 1.46 µM; in test [4], 1.55 µM; in test [5], 1.3 µM; in test [6], 2.03 µM. The values for the GI50 in test [7] and in test [8] were 1.28 µM and 3.09 µM, respectively. The TGI was 6.54 µM in test [1]; greater than 100 µM in test [2]; 8.17 µM in test [3]; 5.39 µM in test [4]; greater than 26.1 µM in test [5]; 7.79 µM in test [6]. Further, the TGI is 4.74 µM in test [7] and greater than 49.6 µM in test [8].

With `CN(C)c1ccc(N=C(C#N)c2nc(N)nc(N3CCN(c4ccccc4)CC3)n2)cc1`, the GI50 was 34.2 µM in test [1]; greater than 50 µM in test [2]; greater than 50 µM in test [3]; 23.6 µM in test [4]; 14.8 µM in test [5]; 22.3 µM in test [6]. Also, the GI50 in test [7] was greater than 50 µM; in test [8], 11.6 µM. The TGI in test [1], in test [2], in test [3], in test [4], in test [5] and in test [6] was greater than 50 µM in each case. In addition, the TGI in test [7] is greater than 50 µM; in test [8], greater than 28.1 µM.

`CC(C)(O)CCC(O)C(C)(O)C1CCC2(O)C3=CC(=O)C4(O)CC(O)C(O)CC4(C)C3CCC12C` (centres undefined) (tested in a mixture with another compound): the TGI in test [1], in test [2], in test [3], in test [4], in test [5] and in test [6] was greater than 100 µM in each case. The TGI in test [7] and in test [8] was greater than 100 µM throughout.

`C#CCOc1cccc(Nc2ncc3ncn(C4CCN(C(=O)CCl)C4)c3n2)c1` (centres undefined): the GI50 in test [1] is greater than 62.5 µM; in test [2], greater than 62.5 µM; in test [3] it was 7.72 µM; in test [4], 18.3 µM; in test [5] it was 6.79 µM; in test [6], 14.6 µM. The GI50 in test [7] and in test [8] was greater than 62.5 µM each time. For the same compound, the TGI in test [1] was greater than 62.5 µM; in test [2], greater than 62.5 µM; in test [3], greater than 62.5 µM; in test [4], greater than 62.5 µM; in test [5], greater than 62.5 µM; in test [6], 46.2 µM. For the same compound, the TGI in test [7] and in test [8] was greater than 62.5 µM throughout.

Consider `N#Cc1ncc(N2C(=O)C3(CCC3)N(c3ccc(OC4CCNCC4)nc3)C2=S)cc1C(F)(F)F`, for which the GI50 in test [1] was 25.2 µM; in test [2] it was 36.8 µM; in test [3] it was 3.37 µM; in test [4] it was 12.9 µM; in test [5], 17.1 µM; in test [6] it was 17.7 µM. The GI50 in test [7] is 13.6 µM; in test [8], 18.8 µM. Moreover, the TGI in test [1] is 81.9 µM; in test [2], greater than 100 µM; in test [3], 21.1 µM; in test [4], 26 µM; in test [5] it was 36.3 µM; in test [6], 32 µM. Further, the TGI was 26.8 µM in test [7] and 41.1 µM in test [8].

As to `FC(F)(F)c1cc(NC2=NCCN=C(Nc3cc(C(F)(F)F)cc(C(F)(F)F)c3)SS2)cc(C(F)(F)F)c1`, the GI50 was 5.23 µM in test [1]; 4.08 µM in test [2]; 3.76 µM in test [3]; 6.2 µM in test [4]; 6.04 µM in test [5]; 2.6 µM in test [6]. Further, the GI50 was 5.26 µM in test [7] and 6.24 µM in test [8]. The TGI in test [1] worked out at 21.5 µM; in test [2], 15.4 µM; in test [3], 20.4 µM; in test [4], 19.1 µM; in test [5] it was 26.3 µM; in test [6] it was 8.93 µM. For the same compound, the TGI in test [7] amounted to 17.7 µM; in test [8], 18.9 µM.

With `CC1(C)N=C(N)N=C(N)N1c1ccc(OCCCCNC(=O)c2ccc(S(=O)(=O)F)cc2)c(Cl)c1`, the GI50 in test [1] is greater than 100 µM; in test [2], 13.6 µM; in test [3], 4.95 µM; in test [4] it was greater than 100 µM; in test [5], 4.78 µM; in test [6], 41.6 µM. Further, the GI50 is 5.72 µM in test [7] and 8.16 µM in test [8]. Further, the TGI in test [1], in test [2], in test [3], in test [4], in test [5] and in test [6] was greater than 100 µM throughout. The TGI in test [7] and in test [8] was greater than 100 µM each time.

Take `CN1N=Nc2c(C(F)(F)F)nn(-c3ccccc3)c2N(C)C1=O`: the GI50 in test [1], in test [2], in test [3], in test [4], in test [5] and in test [6] was greater than 100 µM each time. The GI50 in test [7] and in test [8] was greater than 100 µM in each case. For the same compound, the TGI in test [1], in test [2], in test [3], in test [4], in test [5] and in test [6] was greater than 100 µM each time. The TGI in test [7] and in test [8] was greater than 100 µM throughout.

Turning to `N#C/C(=C\c1cccnc1)c1nc2ccccc2o1`, the GI50 in test [1], in test [2], in test [3], in test [4], in test [5] and in test [6] was greater than 100 µM throughout. Besides, the GI50 in test [7] and in test [8] was greater than 100 µM throughout. For the same compound, the TGI in test [1], in test [2], in test [3], in test [4], in test [5] and in test [6] was greater than 100 µM each time. Also, the TGI in test [7] and in test [8] was greater than 100 µM throughout.

Turning to `COc1cc(N=Nc2cccc(S(N)(=O)=O)c2)c2ccccc2c1N`, the TGI was greater than 68.5 µM in test [1]; 42.2 µM in test [2]; 35.8 µM in test [3]; 20.7 µM in test [4]; 28.4 µM in test [5]; 30.3 µM in test [6]. Further, the TGI in test [7] came out at 26.9 µM; in test [8], 3.43 µM.

As to `O=C(Nc1ccc(-c2ccnc(Nc3ccc(N4CCOCC4)cc3)n2)cc1)C1CCCN1` (centres undefined), the GI50 in test [1] is 9.49 µM; in test [2] it was 18 µM; in test [4] it was 8.76 µM; in test [5], 5.16 µM; in test [6], 4.27 µM; in test [7], 4.94 µM. The GI50 in test [8] is 7.14 µM. Also, the TGI in test [1] is 44.5 µM; in test [2], 64.7 µM; in test [3], greater than 25.6 µM; in test [4], 23 µM; in test [5], 25.8 µM; in test [6] it was 25.2 µM. Besides, the results for the TGI in test [7] and in test [8] were 20.2 µM and 37.4 µM, respectively.

As for `N#CC1CCc2c(c(-c3cn[nH]c3C(F)(F)F)nc3c(F)cc4[nH]ncc4c23)C1` (centres undefined), the GI50 in test [1] was greater than 100 µM; in test [2], 5.53 µM; in test [3] it was 2.92 µM; in test [4] it was 3.16 µM; in test [5], 2.46 µM; in test [6], 8.21 µM. Also, the GI50 in test [7] is 10.9 µM; in test [8], 9.06 µM. For the same compound, the TGI is greater than 100 µM in test [1]; 61.5 µM in test [2]; 59.1 µM in test [3]; 12.9 µM in test [4]; 8.79 µM in test [5]; 75.1 µM in test [6]. For the same compound, the TGI in test [7] turned out to be 59.4 µM; in test [8] it was 80.3 µM.

On to `N#Cc1ccc2c(c1)C(=O)c1c-2n(CCCN=[N+]=[N-])c(=O)c2cc([N+](=O)[O-])ccc12`, for which the GI50 was greater than 50 µM in test [1]; 33 µM in test [2]; 0.373 µM in test [3]; 5.49 µM in test [4]; 12.4 µM in test [5]; 5.28 µM in test [6]. Further, the GI50 was 23 µM in test [7] and 7.16 µM in test [8]. The TGI is greater than 50 µM in test [1]; greater than 50 µM in test [2]; 4.82 µM in test [3]; greater than 50 µM in test [4]; greater than 50 µM in test [5]; greater than 50 µM in test [6]. The TGI in test [7] and in test [8] was greater than 50 µM throughout.

Take `Cc1nn2c(/C=C3\C(=O)Nc4ccccc43)c(C)nc2s1`: the GI50 was 6.3 µM in test [1]; 45.7 µM in test [2]; 4.86 µM in test [3]; greater than 100 µM in test [4]; 30.6 µM in test [5]; greater than 100 µM in test [6]. Further, the GI50 is 40.4 µM in test [7] and 75.8 µM in test [8]. The TGI was 99 µM in test [1]; greater than 100 µM in test [2]; greater than 100 µM in test [3]; greater than 100 µM in test [4]; greater than 100 µM in test [5]; greater than 100 µM in test [6]. The TGI in test [7] and in test [8] was greater than 100 µM each time.

With `COc1cc(CNC(=O)CCSc2nc3ccccc3c(=O)n2Cc2cc(OC)c(OC)c(OC)c2)cc(OC)c1OC`, the GI50 is 3.59 µM in test [1]; 6 µM in test [2]; 3.01 µM in test [3]; 4.9 µM in test [4]; 13.2 µM in test [5]; 8.09 µM in test [6]. The results for the GI50 in test [7] and in test [8] were 5.1 µM and 7.27 µM, respectively. The TGI in test [1] was 30.9 µM; in test [2], greater than 100 µM; in test [3], greater than 100 µM; in test [4], 44.1 µM; in test [5], greater than 100 µM; in test [6], greater than 100 µM. Besides, the TGI in test [7] is 29 µM; in test [8] it was greater than 100 µM.

With `Cc1cc(Cl)ccc1NC(=O)NC(C)(C)COC(=O)Nc1cccc(Cl)c1`, the GI50 in test [1] was 4.12 µM; in test [2], 5.57 µM; in test [3] it was 8.31 µM; in test [4], 21.4 µM; in test [5], 11.1 µM; in test [6] it was 5.6 µM. In addition, the GI50 in test [7] is 24.2 µM; in test [8] it was 11.2 µM. Moreover, the TGI in test [1], in test [2], in test [3], in test [4], in test [5] and in test [6] was greater than 100 µM throughout. Besides, the TGI in test [7] and in test [8] was greater than 100 µM throughout.

On to `C=C1C[C@@H]2[C@H](CC[C@]3(C)C(=O)CC[C@@H]23)[C@@]2(C)C=CC(=O)C=C12`, for which the GI50 in test [1] is 30.6 µM; in test [2], greater than 58.8 µM; in test [3], greater than 54.4 µM; in test [4] it was 28.9 µM; in test [5], 34.4 µM; in test [6], 23.5 µM. Further, the GI50 in test [7] was 36.9 µM; in test [8] it was greater than 65.8 µM. In addition, the TGI was greater than 92 µM in test [1]; greater than 100 µM in test [2]; greater than 79.9 µM in test [3]; greater than 100 µM in test [4]; greater than 100 µM in test [5]; 54.3 µM in test [6]. For the same compound, the TGI in test [7] and in test [8] was greater than 100 µM in each case.

Take `Cc1ccc(S(=O)(=O)c2ccsc2N)cc1`: the GI50 in test [1], in test [2], in test [3], in test [4], in test [5] and in test [6] was greater than 100 µM each time. Also, the GI50 in test [7] and in test [8] was greater than 100 µM in each case. Moreover, the TGI in test [1], in test [2], in test [3], in test [4], in test [5] and in test [6] was greater than 100 µM each time. Also, the TGI in test [7] and in test [8] was greater than 100 µM in each case.

With `O=C1NC(O)CCN1C1CC(O)C(CO)O1` (centres undefined), the TGI in test [1], in test [2], in test [3], in test [4], in test [5] and in test [6] was greater than 100 µM each time. For the same compound, the TGI in test [7] and in test [8] was greater than 100 µM each time.
